Experimental data reported in ChEMBL document CHEMBL4368860, “Structure activity relationship of 2-arylalkynyl-adenine derivatives as human A3 adenosine receptor antagonists” (Medchemcomm, 2018).

Assays:
Adenosine receptor A2a [1] = target: Adenosine receptor A2a (Mus musculus, UniProt Q60613); experiment: Displacement of [3H]ZM241385 from mouse A2A receptor at 10 uM; conditions: probe [3H]ZM241385
Homo sapiens = species: Homo sapiens; experiment: Selectivity ratio of Ki for displacement of [125I]I-AB-MECA from recombinant mouse adenosine A3 receptor expressed in HEK293 cell membranes to Ki for displacement of [125I]I-AB-MECA from recombinant human adenosine A3 receptor
[2] = target: Sigma intracellular receptor 2 (Homo sapiens, UniProt Q5BJF2); experiment: Displacement of [3H]-DTG from human sigma 2 receptor
[3] = target: Sodium-dependent noradrenaline transporter (Homo sapiens, UniProt P23975); experiment: Displacement of [3H]Nisoxetine from human NET expressed in HEK cells by radioligand binding assay; format: cell-based
[4] = target: T1, Adenosine receptor A1 (Homo sapiens) (UniProt P30542); experiment: Displacement of [3H]DPCPX from recombinant human A1 receptor expressed in CHO cell membranes at 10 uM
T1 sequence (whole entry): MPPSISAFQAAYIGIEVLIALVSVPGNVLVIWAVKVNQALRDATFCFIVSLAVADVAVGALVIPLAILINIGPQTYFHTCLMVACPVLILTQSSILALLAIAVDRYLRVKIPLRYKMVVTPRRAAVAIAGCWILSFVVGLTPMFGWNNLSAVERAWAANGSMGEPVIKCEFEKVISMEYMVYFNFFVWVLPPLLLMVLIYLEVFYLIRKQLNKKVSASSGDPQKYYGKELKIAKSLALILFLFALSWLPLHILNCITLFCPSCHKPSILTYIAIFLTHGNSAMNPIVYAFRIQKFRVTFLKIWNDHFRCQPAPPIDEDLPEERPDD

Adenosine receptor A2a [5] = target: Adenosine receptor A2a (Homo sapiens, UniProt P29274); experiment: Displacement of [3H]ZM241385 from human A2A receptor expressed in HEK293 cell membranes at 10 uM; conditions: HEK293 cell membranes expressing human A2A receptor, probe [3H]ZM241385
Adenosine receptor A3 [6] = target: T2, Adenosine receptor A3 (Homo sapiens, UniProt P0DMS8); experiment: Displacement of [125I]I-AB-MECA from recombinant human adenosine A3 receptor expressed in CHO cell membranes
T2 sequence (P0DMS8 whole entry): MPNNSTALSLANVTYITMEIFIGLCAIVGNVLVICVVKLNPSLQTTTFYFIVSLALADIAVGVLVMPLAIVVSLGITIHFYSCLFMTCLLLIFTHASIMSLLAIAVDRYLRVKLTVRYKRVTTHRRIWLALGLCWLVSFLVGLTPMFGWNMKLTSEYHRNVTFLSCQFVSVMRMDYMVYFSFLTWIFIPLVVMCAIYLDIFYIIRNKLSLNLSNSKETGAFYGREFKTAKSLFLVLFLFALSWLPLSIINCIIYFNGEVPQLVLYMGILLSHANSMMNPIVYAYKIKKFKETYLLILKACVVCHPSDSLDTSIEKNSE

[7] = target: Adenosine receptor A1 (Mus musculus) (UniProt Q60612); experiment: Displacement of [3H]DPCPX from mouse A1 receptor at 10 uM
Adenosine receptor A3 [8] = target: Adenosine receptor A3 (Mus musculus, UniProt Q61618); experiment: Displacement of [125I]I-AB-MECA from recombinant mouse adenosine A3 receptor expressed in HEK293 cell membranes
Chain of Adenosine receptor A3 (Mus musculus, UniProt Q61618) (Q61618 whole entry): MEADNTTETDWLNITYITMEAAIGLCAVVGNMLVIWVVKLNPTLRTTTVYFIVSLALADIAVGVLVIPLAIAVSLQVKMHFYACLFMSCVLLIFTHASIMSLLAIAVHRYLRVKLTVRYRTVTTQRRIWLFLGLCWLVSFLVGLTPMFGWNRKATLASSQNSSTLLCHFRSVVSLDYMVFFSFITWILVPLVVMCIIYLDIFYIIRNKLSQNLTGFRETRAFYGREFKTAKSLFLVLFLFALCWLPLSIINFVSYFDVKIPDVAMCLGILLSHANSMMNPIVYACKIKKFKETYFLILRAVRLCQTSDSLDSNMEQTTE

Chain of Sigma intracellular receptor 2 (Q5BJF2 whole entry): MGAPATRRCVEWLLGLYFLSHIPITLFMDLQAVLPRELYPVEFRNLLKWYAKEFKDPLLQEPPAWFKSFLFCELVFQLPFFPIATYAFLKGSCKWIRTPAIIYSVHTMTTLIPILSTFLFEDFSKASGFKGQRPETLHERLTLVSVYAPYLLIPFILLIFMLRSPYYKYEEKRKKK
Chain of Adenosine receptor A1 (Mus musculus) (Q60612 whole entry): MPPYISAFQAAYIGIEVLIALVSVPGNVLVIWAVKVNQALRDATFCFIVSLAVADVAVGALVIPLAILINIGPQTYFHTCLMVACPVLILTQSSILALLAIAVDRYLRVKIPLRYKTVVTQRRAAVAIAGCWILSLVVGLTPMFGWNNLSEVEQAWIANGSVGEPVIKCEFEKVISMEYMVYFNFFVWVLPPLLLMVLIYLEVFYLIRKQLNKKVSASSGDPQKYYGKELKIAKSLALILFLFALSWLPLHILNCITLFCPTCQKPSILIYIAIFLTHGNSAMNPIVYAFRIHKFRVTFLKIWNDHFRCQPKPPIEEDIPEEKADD
Chain of Adenosine receptor A2a (Homo sapiens, UniProt P29274) (P29274 whole entry): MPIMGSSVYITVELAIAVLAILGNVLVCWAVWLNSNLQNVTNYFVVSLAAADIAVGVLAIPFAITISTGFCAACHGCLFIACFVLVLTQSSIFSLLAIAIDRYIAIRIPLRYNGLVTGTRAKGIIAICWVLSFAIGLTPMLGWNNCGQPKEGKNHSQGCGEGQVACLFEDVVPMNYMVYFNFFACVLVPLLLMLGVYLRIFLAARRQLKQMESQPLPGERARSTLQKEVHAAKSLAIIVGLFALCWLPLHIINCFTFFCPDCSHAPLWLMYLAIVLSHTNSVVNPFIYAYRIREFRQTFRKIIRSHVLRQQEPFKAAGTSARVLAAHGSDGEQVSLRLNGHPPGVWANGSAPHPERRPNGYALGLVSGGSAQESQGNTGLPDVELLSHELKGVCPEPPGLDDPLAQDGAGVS
Chain of Adenosine receptor A2a (Mus musculus, UniProt Q60613) (Q60613 whole entry): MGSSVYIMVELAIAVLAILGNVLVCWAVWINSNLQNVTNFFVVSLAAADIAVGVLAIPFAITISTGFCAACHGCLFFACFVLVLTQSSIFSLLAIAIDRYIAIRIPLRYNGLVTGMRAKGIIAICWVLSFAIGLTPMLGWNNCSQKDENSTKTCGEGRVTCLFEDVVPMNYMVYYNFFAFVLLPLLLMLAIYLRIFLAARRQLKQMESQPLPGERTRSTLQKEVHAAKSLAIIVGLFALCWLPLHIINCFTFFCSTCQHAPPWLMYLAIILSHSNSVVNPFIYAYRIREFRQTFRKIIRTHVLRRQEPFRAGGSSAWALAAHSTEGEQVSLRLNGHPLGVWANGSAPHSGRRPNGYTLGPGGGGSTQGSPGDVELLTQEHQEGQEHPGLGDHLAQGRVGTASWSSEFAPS
Chain of Sodium-dependent noradrenaline transporter (P23975 whole entry): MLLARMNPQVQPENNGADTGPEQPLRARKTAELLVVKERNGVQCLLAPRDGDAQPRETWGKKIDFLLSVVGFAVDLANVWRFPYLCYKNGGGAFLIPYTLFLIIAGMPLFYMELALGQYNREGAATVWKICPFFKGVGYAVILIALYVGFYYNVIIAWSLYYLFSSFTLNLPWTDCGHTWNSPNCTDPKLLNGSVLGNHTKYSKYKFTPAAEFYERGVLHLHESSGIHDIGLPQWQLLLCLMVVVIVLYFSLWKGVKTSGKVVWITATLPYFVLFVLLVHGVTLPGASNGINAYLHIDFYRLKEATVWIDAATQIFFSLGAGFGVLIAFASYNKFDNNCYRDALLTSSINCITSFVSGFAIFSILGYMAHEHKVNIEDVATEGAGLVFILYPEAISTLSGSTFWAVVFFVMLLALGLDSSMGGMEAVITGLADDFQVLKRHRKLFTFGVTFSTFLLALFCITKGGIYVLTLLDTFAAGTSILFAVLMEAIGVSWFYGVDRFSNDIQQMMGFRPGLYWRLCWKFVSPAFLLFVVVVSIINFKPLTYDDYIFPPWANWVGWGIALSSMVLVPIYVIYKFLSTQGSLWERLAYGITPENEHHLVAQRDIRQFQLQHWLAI

inhibition at 10 µM (Adenosine receptor A2a [1]): 13% | Ki [2]: 1300 nM | Ki [3]: 2800 nM | inhibition [4]: 30% | inhibition at 10 µM (Adenosine receptor A2a [5]): 22% | Ki (Adenosine receptor A3 [6]): 20 nM | inhibition [7]: 39% | Ki (Adenosine receptor A3 [8]): 480 nM
Structure (SMILES): C[C@@]12C[C@@H]1[C@@H](n1cnc3c(NCCc4ccccc4)nc(C#Cc4ccccc4)nc31)[C@H](O)[C@@H]2O
Ratio Ki (Homo sapiens): 24
